Assays:
[1] = tested on: HER2 overexpressing cells (SK-BR-3, BT-474, N87); test: In vitro drug combinations with PB4188 (checkerboard titrations, isobolograms); type: cell-based; details: HRG in matrigel or HRG stress concentrations
Experimental: Moreover, combination with chemotherapeutic drugs and cyclin inhibitors were tested. Combinations were tested on HER2 overexpressing cells growing in the presence of HRG in matrigel (SK-BR-3 and BT-474) or in the presence of HRG stress concentrations (N87 and SK-BR-3 as described in proliferation assays). The inhibitory effect of drug combinations was tested by imaging or by measuring proliferation using Alamar Blue as described herein before. […] The extent of growth inhibition obtained with each combination was calculated. […] The inhibition values of the combination experiments were used by CHALICE™ Analyzer software to generate the isobolograms.

[2] = tested on: intracranial ST1360B PDX tumors
From the text: Mice carrying ST1360B tumors were supplemented with estrogen following tumor implantation. The tumor was washed with PBS and trimmed for residual connective tissues at the surface. The tumor was cut into small pieces and digested with Accutase and Collagenase IV to yield a suspension of single cells. The digestion was stopped by addition of media containing fetal bovine serum and the cell suspension was filtered through a 100 µm filter, washed in PBS and resuspended in PBS. The viability of the tumor cells was checked by trypan blue staining and the final concentration was 18 million viable cells/mL. The viability of total cells was greater than 80%. There was no differentiation between stromal or tumor cells and the solutions do also contain some cell debris. […] The cells were kept on ice until inoculation.
Mice were anaesthetized by hypnorm/midazolam (1 ml/100 g body weight) and placed in a stereotactic frame for fixation of the head. A longitudinal incision was made in the scalp exposing the calvarium. A hole was drilled in the skull 1.5 mm right of the sutura saggitalis and 0.5 mm posterior to the bregma using a microdrill. Ten µl of the cell suspension (180.000 cells) was injected at a depth of 2-2.5 mm at a rate of 60 nl/sec using a 100 µl syringe with a 25-gauge needle placed in a micro infusion pump. The needle was left for 3 minutes before being withdrawn. Bupivacaine (0.2 mg/100 g bodyweight) and Lidocaine (1 mg/100 g body weight) were administrated in the incision site for local anesthetic and the skin was closed with a suture. The mice were ear punched for identification and returned to their cages where they were monitored until fully recovered from the anesthesia. The mice were monitored at least twice per week (weight and clinical signs) after tumor inoculation and more often if clinical signs or weight loss was present.
Tumor development was monitored bi-weekly by T2-weighted MR imaging (axial and coronal planes). The first imaging session was 19 days after tumor inoculation. The animals were anesthetized during the MR imaging sessions (sevoflurane, 2-4% in ambient air supplemented with 100% O2 at approximately 4:1 ratio). Enrolment into study was based on two pathological MR scans showing tumor growth and a tumor volume of about 10-20 mm^3. Mice that meet the enrolment criteria were randomized into one of four groups. The first 32 mice that meet the inclusion criteria were enrolled into the study. Mice were randomized so all groups presented with the same mean tumor volume at treatment initiation.
Drugs were diluted in sterile saline before each dosing. Mice were placed under a heating lamp for approximately 5-10 minutes before injection of the test compound to make the procedure as quick and easy as possible. The mouse was placed on a tail restrain box and the test compound was dosed in the lateral tail vein as a single intravenous (i.v.) bolus dose. The dosing volume was 5.0mL/kg.
Tumor growth were monitored bi-weekly by T2-weighted MR imaging (axial and coronal planes) for the first two weeks after therapy initiation and weekly until 6 weeks after therapy. The animals were anesthetized during the MR imaging sessions (sevoflurane, 2-4% in ambient air supplemented with 100% O2 at approximately 4:1 ratio).
The brain with tumor was resected and preserved in 4% formaldehyde for 24-48 hours and transferred to 70% ethanol. The fixative: tissue ratio was at least 20:1.
Tumor volumes were measured on the images by drawing region of interests (ROIs) on the individual slices and calculating the volume of the ROIs.

Compound	Drug combination with PB4188 (isobologram analysis) [1]	other results
Cc1nc(NC(=O)N2CCC[C@H]2C(N)=O)sc1-c1ccnc(C(C)(C)C(F)(F)F)c1 [BYL719]	synergistic	
NC1(c2ccc(-c3nc4ccn5c(=O)[nH]nc5c4cc3-c3ccccc3)cc2)CCC1 [MK-2206]	synergistic	
CO[C@H]1C[C@@H]2CC[C@@H](C)[C@@](O)(O2)C(=O)C(=O)N2CCCC[C@H]2C(=O)O[C@H]([C@H](C)C[C@@H]2CC[C@@H](OCCO)[C@H](OC)C2)CC(=O)[C@H](C)/C=C(\C)[C@@H](O)[C@@H](OC)C(=O)[C@H](C)C[C@H](C)/C=C/C=C/C=C/1C [everolimus]	synergistic	
CS(=O)(=O)CCNCc1ccc(-c2ccc3ncnc(Nc4ccc(OCc5cccc(F)c5)c(Cl)c4)c3c2)o1 [lapatinib]	synergistic	
CCOc1cc2ncc(C#N)c(Nc3ccc(OCc4ccccn4)c(Cl)c3)c2cc1NC(=O)/C=C/CN(C)C [neratinib]	synergistic	
CC(=O)O[C@H]1C(=O)[C@@]2(C)[C@H]([C@H](OC(=O)c3ccccc3)[C@]3(O)C[C@H](OC(=O)[C@H](O)[C@@H](NC(=O)c4ccccc4)c4ccccc4)C(C)=C1C3(C)C)[C@]1(OC(C)=O)CO[C@@H]1C[C@@H]2O [paclitaxel]	synergistic	
O=C(CCCCCCC(=O)Nc1ccccc1)NO [vorinostat]	synergistic	
T-DM1		Tumor growth by T2-weighted MRI ([2]; compared to vehicle treated mice): inhibited; mean tumor volume 10 days post therapy ([2]; compared to vehicle treated mice, p<0.05, Tukey): significantly smaller compared to vehicle treated mice; Brain edema score day 3 ([2]; individual mouse, scale 0-4 (0 no, 4 massive brain edema), day 3 post initiation of therapy): 0; median survival ([2]; post therapy initiation, T-DM1 10 mg/kg 4x qwk i.v., MCLA-128 25 mg/kg 4x twice wk i.v., vehicle 13 days): 19.5 days

From EP4810518A2, “ANTIBODY THAT BINDS ERBB-2 AND ERBB-3” (Merus B.V., priority 2017, dated 2018)
